Reference: patent publication US8828992B2, “Substituted azole derivatives, pharmaceutical composition containing the derivatives, and method for treating Parkinson's disease using the same” (priority 2009, dated 2014)
Like-named read-outs stand apart in the source and are kept apart here.

Key:
[1] = test system: dopamine (DA) in the striatum of a MPTP-treated mouse; assay: Combined administration with Levodopa group: dopamine in the striatum of MPTP-treated mouse (HPLC); type: in vivo; conditions: compound 1 mg/kg PO co-administered with Levodopa group (Levodopa 50 mg/kg + Benzerazide 25 mg/kg IP); for Concentration of dopamine compared to a control group %, 1 hr: 1 hr after Levodopa; for Concentration of dopamine compared to a control group %, 3 hr: 3 hr after Levodopa
Procedure: MPTP (20 mg/kg, free base; Sigma, St. louis, Mo.) was administered to an 8 week old (20-25 g) male C57BL/6 test mouse intraperitoneally at the interval of 2 hours to construct a model.
In order to observe the effects of combined administration of a compound of the present invention and Levodopa, the compound of the present invention was dissolved in a solution containing 0.02 ml of dimethylsulfoxide (DMSO), 0.02 ml of Cremophor, 0.08 ml of polyethyleneglycol (PEG), and 0.08 ml of physiological saline. The resulting solution was orally administered at doses of 1 mg/kg one week after the MPTP treatment, and a Levodopa group containing Levodopa at 50 mg/kg and Benzerazide at 25 mg/kg was intraperitoneally administered 1 hour later.
A single administration of the Levodopa group in the following Table 4 indicates values resulting from a MPTP (toxin) treatment followed by an administration of the Levodopa group compared to the treatment results of a Levodopa single administration group of Levodopa and Benzerazide.
At 1 hour and 3 hours after administration of Levodopa, the animals were sacrificed by cervical vertebra dislocation and the brain tissues were immediately isolated from the animals. 0.5 me of iced solution for HPLC analysis (0.1 M perchloric acid and 0.1 mM EDTA) was added to a striatum obtained from the isolated brain tissues, and an ultrasonic grinder was used to prepare a tissue homogenate. The tissue homogenate was centrifuged at 12,000 rpm for 15 minutes, and its supernatant was filtered through nitrocellulose membrane filter (0.2 um, Millipore). For HPLC analysis, uBondapak™ C18 column (4.6×150 mm, particle size 10 μm: Shisheido, Japan) was used, the flow rate of the mobile phase (0.07 M monobasic sodium phosphate, 1 mM sodium octasulfonic acid, 0.1 uM EDTA, 5% acetonitrile, pH 3.2) was maintained at 0.5 me/min, and the electrode potential of the electrochemical detector (CouloChem III, ESA, Japan) was set at 350 mV.

MPTP-induced mouse model = assay: Tail suspension test in MPTP-induced mouse model of Parkinson's disease; type: in vivo; conditions: administration concentration 10 (10 mg/kg), oral, 7 days after MPTP, % of control group (Sham); for response vs control in vivo at 10 mg/kg: Mus musculus, 168 h, read-out: Mobility (%)
Procedure: (§1) A. MPTP (1-methyl-4-phenyl-1,2,3,6-tetrahydropyridine) and drug treatment MPTP (20 mg/kg, free base; Sigma, St. louis, Mo.) was administered to an 8 week old (20-25 g) male C57BL/6 test mouse intraperitoneally three times a day at the interval of 2 hours to construct a model (Breidert et al., 2002; Lichuan Yang, Shuei Sugama, Jason W. Chirichigno, Jason Gregorio, Stefan Lorenzl, Dong H. Shin, Susan E. Browne, Yoshinori Shimizu, Tong H. Joh, M. Flint Beal, l and David S. Alber. (2003) Minocycline Enhances MPTP Toxicity to Dopaminergic Neurons. J Neurosci Res. 74:278-285). In order to observe the protective effects of the compound as a candidate drug, the compound was dissolved in a solution containing 10% dimethylsulfoxide (DMSO), 10% Cremophor, and 40% polyethyleneglycol (PEG), […] treatment. Rasagiline as a control drug was also dissolved in the same solution, and the resulting solution was administered at the same doses in the same manner as above. A control group (Sham) in which MPTP was not administered was constructed by intraperitoneally administering saline solution to the group instead of MPTP in the same manner as above and orally administering the same solution 1 hour before and after PBS treatment.
A tail suspension test was performed in order to measure the induction degree of behavioral dysfunctions in accordance with administration of MPTP and a drug. At 7 days after administration of the drug, a round stainless steel rod (width: 1 cm) was affixed to a cage (width: 16 cm, height: 40 cm) 35 cm above from the surface shielded by black wooden structures in the left and right sides to perform experiments. The time for which the animal moved for a total period of 6 minutes was measured in seconds to evaluate the drug action.
Mobility refers to an expression of the measurement of the time for which the animal moved with its tail hung high as a percentage compared to the measurement of a control group.

[2] = biological target: T1, Monoamineoxidase B type human-derived enzyme (Homo sapiens, UniProt P27338); assay: Inhibitory effects on the activity of MAO-B (Amplex Red fluorescence, benzylamine substrate); type: biochemical; conditions: for inhibition at 0.01 µM: read-out: Inhibitory effects (%) on the activity of MAO-B
T1 sequence (P27338 1-520): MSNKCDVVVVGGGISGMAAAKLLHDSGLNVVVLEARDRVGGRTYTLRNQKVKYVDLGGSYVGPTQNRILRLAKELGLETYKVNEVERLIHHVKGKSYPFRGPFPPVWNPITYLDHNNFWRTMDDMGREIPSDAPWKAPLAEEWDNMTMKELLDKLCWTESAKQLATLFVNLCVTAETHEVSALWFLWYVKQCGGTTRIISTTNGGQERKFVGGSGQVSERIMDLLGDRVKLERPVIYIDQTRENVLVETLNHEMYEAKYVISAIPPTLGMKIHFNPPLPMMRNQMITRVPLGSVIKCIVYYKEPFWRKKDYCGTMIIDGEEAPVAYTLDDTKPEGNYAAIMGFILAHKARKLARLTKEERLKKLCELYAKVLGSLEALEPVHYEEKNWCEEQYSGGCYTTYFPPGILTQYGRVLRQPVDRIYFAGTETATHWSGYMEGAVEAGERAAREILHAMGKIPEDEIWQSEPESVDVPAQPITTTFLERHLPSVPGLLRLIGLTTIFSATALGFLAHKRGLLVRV
In short: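 Human MAO-B, diluted 1:200 in 0.05 M sodium phosphate pH 7.4, was pre-incubated with compound for 30 min. It was then mixed 1:1 with working buffer holding 400 μM Amplex Red, 2 U/ml HRP and 2 mM benzylamine (working-buffer levels). Fluorescence (Ex 563/Em 587 nm) was read over 30 min.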

[3] = test system: dopamine (DA) in the striata of MPTP-treated mice; assay: Levels of dopamine in the striata of MPTP-treated mice (HPLC); type: in vivo; conditions: Mus musculus, po, 168 h, 10 mpk, 7 days after MPTP, read-out: Levels of dopamine (DA) in the striata, compared to a control group %
Procedure: as §1
The changes of contents of dopamine and dopamine metabolites in the striatum in accordance with administrations of MPTP and the drug were measured by high performance liquid chromatography (HPLC). At 7 days after administration of the drug, the animal was sacrificed by cervical vertebra dislocation and the brain tissues were immediately isolated from the animal. 0.5 ml of iced solution for HPLC analysis (0.1 M perchloric acid and 0.1 mM EDTA) was added to a striatum obtained from the isolated brain tissues, and an ultrasonic grinder was used to prepare a tissue homogenate. The tissue homogenate was centrifuged at 12,000 rpm for 15 minutes, and its supernatant was filtered through nitrocellulose membrane filter (0.2 um, Millipore). For HPLC analysis, uBondapak™ C18 column (4.6×150 mm, particle size 10 μm: Shisheido, Japan) was used, the flow rate of the mobile phase (0.07 M monobasic sodium phosphate), 1 mM sodium octasulfonic acid, 0.1 uM EDTA, 5% acetonitrile, pH 3.2) was maintained at 0.7 ml/min, and the electrode potential of the electrochemical detector (ICA-5000, Japan) was set at 700 mV.

NC(=O)OCc1cc(-c2ccc(OCc3ccccc3)cc2)ns1 [Example 3, carbamic acid 3-(4-benzyloxy-phenyl)-isothiazol-5-ylmethyl ester]
Concentration of dopamine compared to a control group %, 1 hr [1]: 173.43%
Concentration of dopamine compared to a control group %, 3 hr [1]: 39.3%
response vs control in vivo at 10 mg/kg (MPTP-induced mouse model): 70.3%
inhibition at 0.01 µM [2]: 95.2%

NC(=O)OCc1cc(-c2ccc(OCc3cccc(F)c3)cc2)no1 [Example 12, carbamic acid 3-[4-(3-fluoro-benzyloxy)-phenyl]-isoxazol-5-ylmethyl ester]
response vs control in vivo at 10 mg/kg (MPTP-induced mouse model): 85.3%
response vs control in vivo at 10 mg/kg [3]: 78.8%
inhibition at 0.01 µM ([2]; treatment concentration 10 nM): 94.1%

NC(=O)OCc1cc(-c2ccc(OCc3ccc(C=NO)cc3)cc2)no1 [Example 37, carbamic acid 3-{4-[4-(hydroxyimino-methyl)-benzyloxy]-phenyl}-isoxazol-5-ylmethyl ester]
response vs control in vivo at 10 mg/kg (MPTP-induced mouse model): 77.5%
response vs control in vivo at 10 mg/kg [3]: 79.2%
inhibition at 0.01 µM ([2]; treatment concentration 10 nM): 92.3%

NC(=O)OCc1cc(-c2ccc(OCc3cccc(C=NO)c3)cc2)no1 [Example 38, carbamic acid 3-{4-[3-(hydroxyimino-methyl)-benzyloxy]-phenyl}-isoxazol-5-ylmethyl ester]
response vs control in vivo at 10 mg/kg (MPTP-induced mouse model): 73%
response vs control in vivo at 10 mg/kg [3]: 52.9%
inhibition at 0.01 µM ([2]; treatment concentration 10 nM): 91.7%

CCCCCCOc1ccc(-c2cc(COC(N)=O)on2)cc1 [Example 45, carbamic acid 3-(4-hexyloxy-phenyl)-isoxazol-5-ylmethyl ester]
response vs control in vivo at 10 mg/kg (MPTP-induced mouse model): 114%
response vs control in vivo at 10 mg/kg [3]: 41.1%
inhibition at 0.01 µM [2]: 87.6%

NC(=O)OCc1cc(-c2ccc(OCc3ccccn3)cc2)no1 [Example 65, Carbamic acid 3-[4-(pyridin-2-ylmethoxy)-phenyl]-isoxazol-5-ylmethyl ester]
response vs control in vivo at 10 mg/kg (MPTP-induced mouse model): 94.1%
response vs control in vivo at 10 mg/kg [3]: 74.9%
inhibition at 0.01 µM [2]: 89.9%

NC(=O)OCc1cc(-c2ccc(OCc3ccncc3)cc2)no1 [Example 67, Carbamic acid 3-[4-(pyridin-4-ylmethoxy)-phenyl]-isoxazol-5-ylmethyl ester]
response vs control in vivo at 10 mg/kg (MPTP-induced mouse model): 88.9%
response vs control in vivo at 10 mg/kg [3]: 80.7%
inhibition at 0.01 µM [2]: 94.2%

NC(=O)OCc1cc(-c2ccc(OCn3nnc4ccccc43)cc2)no1 [Example 71, Carbamic acid 3-[4-(benzotriazol-1-ylmethoxy)-phenyl]-isoxazol-5-ylmethyl ester]
response vs control in vivo at 10 mg/kg [3]: 41.1%
inhibition at 0.01 µM ([2]; treatment concentration 10 nM): 56%

NC(=O)OCc1cc(-c2ccc(NCc3ccccc3)cc2)no1 [Example 74, Carbamic acid 3-(4-benzylamino-phenyl)-isoxazol-5-ylmethyl ester]
Concentration of dopamine compared to a control group %, 1 hr [1]: 153.7%
Concentration of dopamine compared to a control group %, 3 hr [1]: 74.7%
response vs control in vivo at 10 mg/kg (MPTP-induced mouse model): 96.9%
inhibition at 0.01 µM [2]: 84.5%

NC(=O)OCc1cc(-c2ccc(NCc3c(F)cccc3F)cc2)no1 [Example 79, Carbamic acid 3-[4-(2,6-difluoro-benzylamino)-phenyl]-isoxazol-5-ylmethyl ester]
Concentration of dopamine compared to a control group %, 1 hr [1]: 87.6%
Concentration of dopamine compared to a control group %, 3 hr [1]: 115.2%
response vs control in vivo at 10 mg/kg (MPTP-induced mouse model): 99.4%
inhibition at 0.01 µM ([2]; treatment concentration 10 nM): 84.6%

NC(=O)OCc1cc(-c2ccc(NCc3ccc(F)c(F)c3)cc2)no1 [Example 84, Carbamic acid 3-[4-(3,4-difluoro-benzylamino)-phenyl]-isoxazol-5-ylmethyl ester]
Concentration of dopamine compared to a control group %, 1 hr [1]: 153.7%
Concentration of dopamine compared to a control group %, 3 hr [1]: 144.3%
response vs control in vivo at 10 mg/kg (MPTP-induced mouse model): 97.7%
inhibition at 0.01 µM ([2]; treatment concentration 10 nM): 88.5%

NC(=O)OCc1cc(-c2ccc(NCc3ccoc3)cc2)no1 [Example 111, carbamic acid 3-{4-[(furan-3-ylmethyl)-amino]-phenyl}-isoxazol-5-ylmethyl ester]
response vs control in vivo at 10 mg/kg (MPTP-induced mouse model): 78.8%
inhibition at 0.01 µM [2]: 69%

Cc1cn(Cc2cc(-c3ccc(OCc4ccccc4)cc3)no2)cn1 [Example 141, 3-(4-benzyloxy-phenyl)-5-(4-methyl-imidazol-1-ylmethyl)-isoxazole]
response vs control in vivo at 10 mg/kg (MPTP-induced mouse model): 94.6%
response vs control in vivo at 10 mg/kg [3]: 51.2%
inhibition at 0.01 µM ([2]; treatment concentration 10 nM): 92.2%

Fc1cccc(COc2ccc(-c3cc(Cn4ccnc4)on3)cc2)c1 [Example 142, 3-[4-(3-fluoro-benzyloxy)-phenyl]-5-imidazol-1-ylmethyl-isoxazole]
Concentration of dopamine compared to a control group %, 1 hr [1]: 174.5%
Concentration of dopamine compared to a control group %, 3 hr [1]: 65.5%
response vs control in vivo at 10 mg/kg (MPTP-induced mouse model): 101%
inhibition at 0.01 µM ([2]; treatment concentration 10 nM): 89.5%

c1ccc(COc2ccc(-c3cc(CN4CCCC4)on3)cc2)cc1 [Example 148, 3-(4-benzyloxy-phenyl)-5-pyrrolidin-1-ylmethyl-isoxazole]
response vs control in vivo at 10 mg/kg (MPTP-induced mouse model): 95.9%
inhibition at 0.01 µM ([2]; treatment concentration 10 nM): 79%

[carbamic acid 3-(4-methylsulfanylmethoxy-phenyl)-isoxazol-5-ylmethyl ethyl ester [Example 48]
Mobility (%) (MPTP-induced mouse model): 74.6%
Inhibitory effects (%) on the activity of MAO-B ([2]; treatment concentration 10 nM): 48.4%
